Results taken from ChEMBL document CHEMBL1201861, “Genomics of Drug Sensitity in Cancer screening data, Wellcome Trust Sanger Institute”.

Key:
CAL-148 = experiment: cells; format: functional, cell-based; settings: Homo sapiens
Description: SANGER: Inhibition of human CAL-148 cell growth in a cell viability assay.

SW1783 = experiment: cells; format: functional, cell-based; settings: Homo sapiens
Description: SANGER: Inhibition of human SW1783 cell growth in a cell viability assay.

SNU-387 = experiment: cells; format: functional, cell-based; settings: Homo sapiens
Description: SANGER: Inhibition of human SNU-387 cell growth in a cell viability assay.

OVCAR-8 = experiment: cells; format: functional, cell-based; settings: Homo sapiens;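 also: growth inhibition of human OVCAR-8 cells, read out by a cell viability assay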
Description: SANGER: Inhibition of human OVCAR-8 cell growth in a cell viability assay.

CAL-72 = experiment: cells; format: functional, cell-based; settings: Homo sapiens;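 also: cell viability assay measuring inhibition of proliferation in the CAL-72 cell line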
Description: SANGER: Inhibition of human CAL-72 cell growth in a cell viability assay.

SCLC-21H = experiment: cells; format: functional, cell-based; settings: Homo sapiens;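 also: growth inhibition of cultured human SCLC-21H cells, read out with a cell viability assay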
Description: SANGER: Inhibition of human SCLC-21H cell growth in a cell viability assay.

SW-620 = experiment: cells; format: functional, cell-based; settings: Homo sapiens;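 also: growth inhibition of human SW-620 cells, measured by a cell viability assay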
Description: SANGER: Inhibition of human SW620 cell growth in a cell viability assay.

KYSE-270 = experiment: cells; format: functional, cell-based; settings: Homo sapiens;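 also: cell growth inhibition measured with a viability assay in the human KYSE-270 line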
Description: SANGER: Inhibition of human KYSE-270 cell growth in a cell viability assay.

MDA-MB-175-VII = experiment: cells; format: functional, cell-based; settings: Homo sapiens
IGROV-1 = experiment: cells; format: functional, cell-based; settings: Homo sapiens;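 also: reduction of IGROV-1 cell growth, read out with a viability assay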
Description: SANGER: Inhibition of human IGROV-1 cell growth in a cell viability assay.

LCLC-103H cell line = experiment: cells; format: functional, cell-based; settings: Homo sapiens
Description: SANGER: Inhibition of human LCLC-103H cell growth in a cell viability assay.

ASPC1 = experiment: cells; format: functional, cell-based; settings: Homo sapiens;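 also: growth inhibition of AsPC-1 cells, read out with a cell viability assay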
Description: SANGER: Inhibition of human AsPC-1 cell growth in a cell viability assay.

SW626 = experiment: cells; format: functional, cell-based; settings: Homo sapiens;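 also: growth inhibition of SW626 cells, measured with a cell viability assay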
Description: SANGER: Inhibition of human SW626 cell growth in a cell viability assay.

DBTRG-05MG = experiment: cells; format: functional, cell-based; settings: Homo sapiens;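 also: cell viability assay measuring growth inhibition of human DBTRG-05MG cells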
Description: SANGER: Inhibition of human DBTRG-05MG cell growth in a cell viability assay.

SW756 = experiment: cells; format: functional, cell-based; settings: Homo sapiens;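 also: growth inhibition of human SW756 cells, read out with a cell viability assay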
Description: SANGER: Inhibition of human SW756 cell growth in a cell viability assay.

CAL-120 = experiment: cells; format: functional, cell-based; settings: Homo sapiens;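 also: cell growth inhibition, read out as cell viability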
Description: SANGER: Inhibition of human CAL-120 cell growth in a cell viability assay.

HPAF-II = experiment: cells; format: functional, cell-based; settings: Homo sapiens;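 also: growth inhibition of HPAF-II cells, read out with a cell viability assay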
Description: SANGER: Inhibition of human HPAF-II cell growth in a cell viability assay.

EB2 = experiment: cells; format: functional, cell-based; settings: Homo sapiens;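 also: growth inhibition of EB2 cells, read out with a cell viability assay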
Description: SANGER: Inhibition of human EB2 cell growth in a cell viability assay.

JEG-3 = experiment: cells; format: functional, cell-based; settings: Homo sapiens;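 also: growth inhibition of human JEG-3 cells, read out with a cell viability assay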
Description: SANGER: Inhibition of human JEG-3 cell growth in a cell viability assay.

NCI-H2170 = experiment: cells; format: functional, cell-based; settings: Homo sapiens;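 also: cell viability assay measuring growth inhibition of human NCI-H2170 cancer cells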
Description: SANGER: Inhibition of human NCI-H2170 cell growth in a cell viability assay.

TGW = experiment: cells; format: functional, cell-based; settings: Homo sapiens;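 also: growth inhibition of human TGW cells, read out with a cell viability assay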
Description: SANGER: Inhibition of human TGW cell growth in a cell viability assay.

A-431 = experiment: cells; format: functional, cell-based; settings: Homo sapiens;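 also: growth inhibition of A-431 cells, determined with a cell viability read-out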
Description: SANGER: Inhibition of human A431 cell growth in a cell viability assay.

NCI-H322M = experiment: cells; format: functional, cell-based; settings: Homo sapiens;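 also: cell viability assay measuring inhibition of growth of human NCI-H322M cells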
Description: SANGER: Inhibition of human NCI-H322M cell growth in a cell viability assay.

SK-MEL-24 = experiment: cells; format: functional, cell-based; settings: Homo sapiens;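 also: growth inhibition read out by a cell viability assay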
Description: SANGER: Inhibition of human SK-MEL-24 cell growth in a cell viability assay.

HMV-2 cell line = experiment: cells; format: functional, cell-based; settings: Homo sapiens;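 also: growth inhibition of HMV-II cells, read out with a cell viability assay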
Description: SANGER: Inhibition of human HMV-II cell growth in a cell viability assay.

OPM-2 = experiment: cells; format: functional, cell-based; settings: Homo sapiens;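 also: growth of OPM-2 cells measured with a viability assay, IC50 for suppression of proliferation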
Description: SANGER: Inhibition of human OPM-2 cell growth in a cell viability assay.

MG-63 = experiment: cells; format: functional, cell-based; settings: Homo sapiens;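 also: growth inhibition of human MG-63 cells, read out with a cell viability assay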
Description: SANGER: Inhibition of human MG-63 cell growth in a cell viability assay.

MHH-ES-1 = experiment: cells; format: functional, cell-based; settings: Homo sapiens
Description: SANGER: Inhibition of human MHH-ES-1 cell growth in a cell viability assay.

NCI-H2052 = experiment: cells; format: functional, cell-based; settings: Homo sapiens;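 also: growth inhibition of NCI-H2052 cells, read out with a cell viability assay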
Description: SANGER: Inhibition of human NCI-H2052 cell growth in a cell viability assay.

RPMI-2650 = experiment: cells; format: functional, cell-based; settings: Homo sapiens
Description: SANGER: Inhibition of human RPMI-2650 cell growth in a cell viability assay.

MONO-MAC-6 = experiment: cells; format: functional, cell-based; settings: Homo sapiens;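 also: cell viability assay measuring growth inhibition of human MONO-MAC-6 cells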
Description: SANGER: Inhibition of human MONO-MAC-6 cell growth in a cell viability assay.

SK-MEL3 = experiment: cells; format: functional, cell-based, SK-MEL-3; settings: Homo sapiens;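 also: growth inhibition of human SK-MEL-3 cells, read out with a cell viability assay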
Description: SANGER: Inhibition of human SK-MEL-3 cell growth in a cell viability assay.

CAMA-1 = experiment: cells; format: functional, cell-based; settings: Homo sapiens;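 also: growth inhibition of CAMA-1 cells, read out with a cell viability assay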
Description: SANGER: Inhibition of human CAMA-1 cell growth in a cell viability assay.

BOKU = experiment: cells; format: functional, cell-based; settings: Homo sapiens;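 also: growth inhibition of the human BOKU cell line, read out by a cell viability assay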
Description: SANGER: Inhibition of human BOKU cell growth in a cell viability assay.

VMRC-RCZ = experiment: cells; format: functional, cell-based; settings: Homo sapiens
Description: SANGER: Inhibition of human VMRC-RCZ cell growth in a cell viability assay.

CAL-85-1 = experiment: cells; format: functional, cell-based; settings: Homo sapiens;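 also: growth inhibition of human CAL-85-1 cells, read out with a cell viability assay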
Description: SANGER: Inhibition of human CAL-85-1 cell growth in a cell viability assay.

MKN-45 = experiment: cells; format: functional, cell-based; settings: Homo sapiens;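 also: growth inhibition of human MKN-45 cells, measured with a cell viability assay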
Description: SANGER: Inhibition of human MKN45 cell growth in a cell viability assay.

RD = experiment: cells; format: functional, cell-based; settings: Homo sapiens
Description: SANGER: Inhibition of human RD cell growth in a cell viability assay.

UO-31 = experiment: cells; format: functional, cell-based; settings: Homo sapiens
Description: SANGER: Inhibition of human U031 cell growth in a cell viability assay.

LK-2 = experiment: cells; format: functional, cell-based; settings: Homo sapiens;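 also: growth inhibition of LK-2 cells, read out with a viability assay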
Description: SANGER: Inhibition of human LK-2 cell growth in a cell viability assay.

HCC1419 = experiment: cells; format: functional, cell-based; settings: Homo sapiens;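 also: growth inhibition of human HCC1419 cells, read out as cell viability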
Description: SANGER: Inhibition of human HCC1419 cell growth in a cell viability assay.

HT-3 = experiment: cells; format: functional, cell-based; settings: Homo sapiens;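 also: growth inhibition measured with a cell viability readout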
Description: SANGER: Inhibition of human HT-3 cell growth in a cell viability assay.

NCI-H2009 = experiment: cells; format: functional, cell-based; settings: Homo sapiens;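 also: cell viability assay measuring inhibition of NCI-H2009 cell growth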
Description: SANGER: Inhibition of human NCI-H2009 cell growth in a cell viability assay.

TE-15 = experiment: cells; format: functional, cell-based; settings: Homo sapiens;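 also: cell viability readout of growth inhibition in TE-15 cells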
Description: SANGER: Inhibition of human TE-15 cell growth in a cell viability assay.

Hs-578T = experiment: cells; format: functional, cell-based; settings: Homo sapiens
Description: SANGER: Inhibition of human Hs-578-T cell growth in a cell viability assay.

COR-L105 = experiment: cells; format: functional, cell-based; settings: Homo sapiens
Description: SANGER: Inhibition of human COR-L105 cell growth in a cell viability assay.

HT-1376 = experiment: cells; format: functional, cell-based; settings: Homo sapiens
Description: SANGER: Inhibition of human HT-1376 cell growth in a cell viability assay.

LOUCY = experiment: cells; format: functional, cell-based; settings: Homo sapiens;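 also: growth inhibition of human LOUCY cells, read out with a cell viability assay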
Description: SANGER: Inhibition of human LOUCY cell growth in a cell viability assay.

RPMI 8402 = experiment: SANGER: Inhibition of human RPMI-8402 cell growth in a cell viability assay.; format: functional, cell-based
LB647-SCLC = experiment: cells; format: functional, cell-based; settings: Homo sapiens;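 also: cell growth inhibition, read out by a viability assay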
Description: SANGER: Inhibition of human LB647-SCLC cell growth in a cell viability assay.

U2OS = experiment: cells; format: functional, cell-based, U-2-OS; settings: Homo sapiens;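 also: growth inhibition of human U-2-OS cells, determined with a cell viability assay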
Description: SANGER: Inhibition of human U-2-OS cell growth in a cell viability assay.

Huh-7 = experiment: cells; format: functional, cell-based; settings: Homo sapiens;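 also: HuH-7 cell growth inhibition, read out with a cell viability assay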
Description: SANGER: Inhibition of human HuH-7 cell growth in a cell viability assay.

EVSA-T = experiment: cells; format: functional, cell-based; settings: Homo sapiens;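 also: growth inhibition of EVSA-T cells, read out with a cell viability assay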
Description: SANGER: Inhibition of human EVSA-T cell growth in a cell viability assay.

SAS = experiment: cells; format: functional, cell-based; settings: Homo sapiens;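 also: growth inhibition of SAS cells, read out with a cell viability assay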
Description: SANGER: Inhibition of human SAS cell growth in a cell viability assay.

23132-87 = experiment: cells; format: functional, cell-based; settings: Homo sapiens
Description: SANGER: Inhibition of human 23132-87 cell growth in a cell viability assay.

CAL-12T = experiment: cells; format: functional, cell-based, Homo sapiens; settings: Homo sapiens, CAL-12T;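 also: growth inhibition of human CAL-12T cells, read out with a cell viability assay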
Description: SANGER: Inhibition of human CAL-12T cell growth in a cell viability assay.

CHL-1 = experiment: cells; format: functional, cell-based; settings: Homo sapiens;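 also: cell growth inhibition, read out with a cell viability assay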
Description: SANGER: Inhibition of human CHL-1 cell growth in a cell viability assay.

KYSE-450 = experiment: cells; format: functional, cell-based; settings: Homo sapiens;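 also: cell growth inhibition measured by a viability assay in human KYSE-450 cells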
Description: SANGER: Inhibition of human KYSE-450 cell growth in a cell viability assay.

SBC-5 = experiment: cells; format: functional, cell-based; settings: Homo sapiens;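 also: cell viability assay read-out, IC50 is the concentration that inhibits growth of the cells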
Description: SANGER: Inhibition of human SBC-5 cell growth in a cell viability assay.

TCC-SUP = experiment: cells; format: functional, cell-based; settings: Homo sapiens;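 also: growth inhibition of TCC-SUP cells, read out with a cell viability assay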
Description: SANGER: Inhibition of human TCCSUP cell growth in a cell viability assay.

SNU-449 = experiment: cells; format: functional, cell-based; settings: Homo sapiens
Description: SANGER: Inhibition of human SNU-449 cell growth in a cell viability assay.

IST-SL2 = experiment: cells; format: functional, cell-based; settings: Homo sapiens;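 also: growth inhibition of human IST-SL2 cells, read out by a cell viability assay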
Description: SANGER: Inhibition of human IST-SL2 cell growth in a cell viability assay.

EHEB = experiment: cells; format: functional, cell-based; settings: Homo sapiens;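 also: growth inhibition of human EHEB cells, read out with a cell viability assay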
Description: SANGER: Inhibition of human EHEB cell growth in a cell viability assay.

Q: Which results are given for O=c1[nH]c2ccccc2n1C1CCN(Cc2ccc(-c3nc4cc5[nH]cnc5cc4nc3-c3ccccc3)cc2)CC1?
A: IC50 (CAL-148): > 2.56 µM; IC50 (SW1783): > 2.56 µM; IC50 (SNU-387): > 2.56 µM; IC50 (OVCAR-8): > 2.56 µM; IC50 (CAL-72): > 2.56 µM; IC50 (SCLC-21H): > 2.56 µM; IC50 (SW-620): > 2.56 µM; IC50 (KYSE-270): > 2.56 µM; IC50 (MDA-MB-175-VII): > 2.56 µM; IC50 (IGROV-1): 0.723 µM; IC50 (LCLC-103H cell line): > 2.56 µM; IC50 (ASPC1): > 2.56 µM; IC50 (SW626): > 2.56 µM; IC50 (DBTRG-05MG): > 2.56 µM; IC50 (SW756): > 2.56 µM; IC50 (CAL-120): > 2.56 µM; IC50 (HPAF-II): > 2.56 µM; IC50 (EB2): > 2.56 µM; IC50 (JEG-3): > 2.56 µM; IC50 (NCI-H2170): > 2.56 µM; IC50 (TGW): > 2.56 µM; IC50 (A-431): > 2.56 µM; IC50 (NCI-H322M): > 2.56 µM; IC50 (SK-MEL-24): > 2.56 µM; IC50 (HMV-2 cell line): > 2.56 µM; IC50 (OPM-2): > 2.56 µM; IC50 (MG-63): > 2.56 µM; IC50 (MHH-ES-1): > 2.56 µM; IC50 (NCI-H2052): > 2.56 µM; IC50 (RPMI-2650): > 2.56 µM; IC50 (MONO-MAC-6): > 2.56 µM; IC50 (SK-MEL3): > 2.56 µM; IC50 (CAMA-1): > 2.56 µM; IC50 (BOKU): > 2.56 µM; IC50 (VMRC-RCZ): > 2.56 µM; IC50 (CAL-85-1): > 2.56 µM; IC50 (MKN-45): > 2.56 µM; IC50 (RD): > 2.56 µM; IC50 (UO-31): > 2.56 µM; IC50 (LK-2): > 2.56 µM; IC50 (HCC1419): 2.34 µM; IC50 (HT-3): > 2.56 µM; IC50 (NCI-H2009): > 2.56 µM; IC50 (TE-15): > 2.56 µM; IC50 (Hs-578T): > 2.56 µM; IC50 (COR-L105): > 2.56 µM; IC50 (HT-1376): > 2.56 µM; IC50 (LOUCY): > 2.56 µM; IC50 (RPMI 8402): > 2.56 µM; IC50 (LB647-SCLC): > 2.56 µM; IC50 (U2OS): > 2.56 µM; IC50 (Huh-7): > 2.56 µM; IC50 (EVSA-T): > 2.56 µM; IC50 (SAS): > 2.56 µM; IC50 (23132-87): 0.759 µM; IC50 (CAL-12T): > 2.56 µM; IC50 (CHL-1): > 2.56 µM; IC50 (KYSE-450): > 2.56 µM; IC50 (SBC-5): > 2.56 µM; IC50 (TCC-SUP): > 2.56 µM; IC50 (SNU-449): > 2.56 µM; IC50 (IST-SL2): > 2.56 µM; IC50 (EHEB): > 2.56 µM

Q: With Fc1cc(-c2cc[nH]/c(=N/c3ccc(-n4cnc(N5CCOCC5)n4)cc3)n2)cc(N2CCOCC2)c1 as the molecule, how does the IC50 (CAL-148) read?
A: 4.94 µM

Q: What about the IC50 (SW1783) of the same molecule?
A: 0.428 µM

Q: What about the IC50 (SNU-387) of the same molecule?
A: 0.417 µM

Q: What about the IC50 (OVCAR-8) of the same molecule?
A: 0.412 µM

Q: What about the IC50 (CAL-72) of the same molecule?
A: > 5.12 µM

Q: What about the IC50 (SCLC-21H) of the same molecule?
A: > 5.12 µM

Q: And the IC50 (SW-620)?
A: 0.355 µM

Q: And the IC50 (KYSE-270)?
A: 0.222 µM

Q: What about the IC50 (MDA-MB-175-VII) of the same molecule?
A: 2.96 µM

Q: What about the IC50 (IGROV-1) of the same molecule?
A: 0.0977 µM

Q: And the IC50 (LCLC-103H cell line)?
A: 0.135 µM

Q: And the IC50 (ASPC1)?
A: 3.8 µM

Q: And the IC50 (SW626)?
A: 1.09 µM

Q: What about the IC50 (DBTRG-05MG) of the same molecule?
A: 0.75 µM

Q: What about the IC50 (SW756) of the same molecule?
A: 2.06 µM

Q: What about the IC50 (CAL-120) of the same molecule?
A: 1.42 µM

Q: And the IC50 (HPAF-II)?
A: 0.512 µM

Q: And the IC50 (EB2)?
A: 0.581 µM

Q: What about the IC50 (JEG-3) of the same molecule?
A: 0.705 µM

Q: And the IC50 (NCI-H2170)?
A: 0.745 µM

Q: What about the IC50 (TGW) of the same molecule?
A: 3.47 µM

Q: What about the IC50 (A-431) of the same molecule?
A: 0.249 µM

Q: And the IC50 (NCI-H322M)?
A: > 5.12 µM

Q: And the IC50 (SK-MEL-24)?
A: > 5.12 µM

Q: What about the IC50 (HMV-2 cell line) of the same molecule?
A: 0.151 µM

Q: What about the IC50 (OPM-2) of the same molecule?
A: 0.514 µM

Q: And the IC50 (MG-63)?
A: 0.669 µM

Q: What about the IC50 (MHH-ES-1) of the same molecule?
A: 0.274 µM

Q: What about the IC50 (NCI-H2052) of the same molecule?
A: 1.65 µM

Q: What about the IC50 (RPMI-2650) of the same molecule?
A: 0.224 µM

Q: And the IC50 (MONO-MAC-6)?
A: 0.544 µM

Q: And the IC50 (SK-MEL3)?
A: 0.877 µM

Q: What about the IC50 (CAMA-1) of the same molecule?
A: > 5.12 µM

Q: And the IC50 (BOKU)?
A: 3.1 µM

Q: And the IC50 (VMRC-RCZ)?
A: 0.999 µM

Q: And the IC50 (CAL-85-1)?
A: 0.881 µM

Q: What about the IC50 (MKN-45) of the same molecule?
A: 0.994 µM

Q: And the IC50 (RD)?
A: 1.3 µM

Q: What about the IC50 (UO-31) of the same molecule?
A: 0.519 µM

Q: What about the IC50 (LK-2) of the same molecule?
A: 0.849 µM

Q: What about the IC50 (HCC1419) of the same molecule?
A: 1.09 µM

Q: What about the IC50 (HT-3) of the same molecule?
A: 0.102 µM

Q: What about the IC50 (NCI-H2009) of the same molecule?
A: 0.508 µM

Q: What about the IC50 (TE-15) of the same molecule?
A: 0.375 µM

Q: What about the IC50 (Hs-578T) of the same molecule?
A: > 5.12 µM

Q: What about the IC50 (COR-L105) of the same molecule?
A: 0.235 µM

Q: What about the IC50 (HT-1376) of the same molecule?
A: 1.46 µM

Q: What about the IC50 (LOUCY) of the same molecule?
A: 0.112 µM

Q: What about the IC50 (RPMI 8402) of the same molecule?
A: 0.605 µM

Q: And the IC50 (LB647-SCLC)?
A: > 5.12 µM

Q: And the IC50 (U2OS)?
A: > 5.12 µM

Q: What about the IC50 (Huh-7) of the same molecule?
A: 0.756 µM

Q: What about the IC50 (EVSA-T) of the same molecule?
A: 1.27 µM

Q: What about the IC50 (SAS) of the same molecule?
A: 1.94 µM

Q: What about the IC50 (23132-87) of the same molecule?
A: 0.623 µM

Q: And the IC50 (CAL-12T)?
A: 2.11 µM

Q: And the IC50 (CHL-1)?
A: 0.49 µM

Q: What about the IC50 (KYSE-450) of the same molecule?
A: 0.329 µM

Q: And the IC50 (SBC-5)?
A: 0.398 µM

Q: What about the IC50 (TCC-SUP) of the same molecule?
A: > 5.12 µM

Q: And the IC50 (SNU-449)?
A: 0.522 µM

Q: What about the IC50 (IST-SL2) of the same molecule?
A: 0.457 µM

Q: And the IC50 (EHEB)?
A: 0.376 µM
